# Assay results: patent US20240336900A1, “METHODS AND COMPOSITIONS RELATED TO MODIFIED METHYLTRANSFERASES AND ENGINEERED BIOSENSORS” (BOARD OF REGENTS, THE UNIVERSITY OF TEXAS SYSTEM, priority 2023, published 2024)
# What was measured:
# RamR = target: T1, RamR (Salmonella typhimurium, UniProt Q8ZR43); experiment: Biosensor response assay, wild-type RamR with Pramr-GFP reporter; type: cell-based; conditions: pReg-RamR + Pramr-GFP, upon induction
# T1 construct: expressed in transfected cells; host or cells: E. coli DH10B
# T1 sequence (Q8ZR43 2-193, added parts left off): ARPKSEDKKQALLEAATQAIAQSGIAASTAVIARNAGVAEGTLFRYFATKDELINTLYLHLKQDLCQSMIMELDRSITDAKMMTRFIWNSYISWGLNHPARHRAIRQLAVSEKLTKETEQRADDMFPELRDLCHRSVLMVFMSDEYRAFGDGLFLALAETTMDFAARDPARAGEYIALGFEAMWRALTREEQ
# From the text: The wild-type RamR sensor was constitutively expressed on one plasmid (pReg-RamR) in parallel with another plasmid bearing the regulator's cognate promoter upstream of the sfGFP gene (Pramr-GFP). […] To better understand this promiscuous binding activity, norbelladine was docked within the ligand binding pocket of RamR using GNINA 1.0 […], and a conformational pose was identified whereby the phenol moiety of norbelladine forms hydrogen bonds with S137 and T85, while the catechol moiety forms a hydrogen bond with K63.
# The pReg-RamR and Pramr-GFP plasmids were co-transformed into DH10B cells, which were then plated on LB agar plates containing appropriate antibiotics. Three separate colonies were picked for each transformation and were grown overnight. The following day, 20 μL of each culture was then used to inoculate six separate wells in a 2-mL 96-deep-well plate (Corning, P-DW-20-C-S) sealed with an AeraSeal film (Excel Scientific) containing 900 μL LB medium, one for each test ligand and a solvent control. […] One hundred microliters of the cell resuspension for each condition was transferred to a 96-well microtiter plate (Corning, 3904), from which the fluorescence (excitation, 485 nm; emission, 509 nm) and absorbance (600 nm) were measured using the Tecan Infinite M1000 plate reader.
# 4NB2.1 biosensor = target: T2, 4NB2.1 biosensor (Salmonella typhimurium, UniProt Q8ZR43, C134D/K63T/L66M/S137G); experiment: Dose response of the evolved 4NB2.1 biosensor to 4NB (fluorescence, RFU/OD); type: cell-based, Escherichia coli
# T2 construct: expressed in transfected cells; host or cells: E. coli DH10B
# T2 sequence (Q8ZR43 other isoform, or with tags, fused parts or gaps K63T/L66M/C134D/S137G): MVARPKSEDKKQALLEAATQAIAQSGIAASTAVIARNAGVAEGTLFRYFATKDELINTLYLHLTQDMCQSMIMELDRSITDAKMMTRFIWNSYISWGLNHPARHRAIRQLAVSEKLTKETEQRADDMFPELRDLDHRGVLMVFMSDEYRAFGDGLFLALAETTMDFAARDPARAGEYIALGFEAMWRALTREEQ
# Procedure: For sensor variant validation, the subcloned pReg-RamR vectors expressing the sensor variants were transformed into DH10B cells expressing Pramr-GFP. These cultures were then assayed, as described in Biosensor response assay, using eight different concentrations of the 4NB.
# Glycerol stocks (20% glycerol) of strains containing the plasmids of interest were inoculated into 1 ml LB medium and grown overnight at 37° C. Twenty microliters of overnight culture was seeded into 900 μl LB medium containing ampicillin and chloramphenicol in a 2-ml 96-deep-well plate sealed with an AeraSeal film. Following growth at 37° C. and 250 r.p.m. for 2 h, cultures were induced with 100 μl of an LB medium solution containing appropriate antibiotics and the inducer molecule dissolved in 10 μl DMSO. Cultures were grown for an additional 4 h at 37° C. and 250 r.p.m. and subsequently centrifuged (3,500 g, 4° C., 10 min). Supernatant was removed, and cell pellets were resuspended in 1 ml PBS. The cell resuspension (100 μl) for each condition was transferred to a 96-well microtiter plate, from which the fluorescence (excitation, 485 nm; emission, 509 nm) and absorbance (600 nm) were measured using the Tecan Infinite M1000 plate reader.
# Bar graphs, fluorescence and growth curves, dose-response functions were all plotted in Python 3.6.9 using Matplotlib. Dose-response curves and EC50 values were estimated by fitting to the Hill equation y=d+(a−d)xb(cb+xb)−1 (where y=output signal, b=Hill coefficient, x=ligand concentration, d=background signal, a=maximum signal and c=EC50), with the scipy.optimize.curve_fit library in Python.
smiles,measurement,setting,value
"COc1ccc(CNCCc2ccc(O)cc2)cc1O [4NB, 4-O'Methylnorbelladine]",increase in fluorescence,RamR,3.8 fold
same,4NB2.1 biosensor measurement,4NB2.1 biosensor; 1 uM 4NB supplemented into media,200.81 RFU/OD
same,4NB2.1 biosensor measurement,4NB2.1 biosensor; 2.5 uM 4NB supplemented into media,240.62 RFU/OD
same,4NB2.1 biosensor measurement,4NB2.1 biosensor; 5 uM 4NB supplemented into media,395.69 RFU/OD
same,4NB2.1 biosensor measurement,4NB2.1 biosensor; 10 uM 4NB supplemented into media,944.28 RFU/OD
same,4NB2.1 biosensor measurement,4NB2.1 biosensor; 25 uM 4NB supplemented into media,5648.44 RFU/OD
same,4NB2.1 biosensor measurement,4NB2.1 biosensor; 50 uM 4NB supplemented into media,21194.72 RFU/OD
same,4NB2.1 biosensor measurement,4NB2.1 biosensor; 100 uM 4NB supplemented into media,43800.94 RFU/OD
same,4NB2.1 biosensor measurement,4NB2.1 biosensor; 250 uM 4NB supplemented into media,64506.12 RFU/OD
same,4NB2.1 biosensor measurement,4NB2.1 biosensor; 500 uM 4NB supplemented into media,67029.6 RFU/OD
same,4NB2.1 biosensor measurement,4NB2.1 biosensor; 1000 uM 4NB supplemented into media,62040.21 RFU/OD
same,EC50,4NB2.1 biosensor; biosensor developed by directed evolution,20 µM
Oc1ccc(CCNCc2ccc(O)c(O)c2)cc1 [norbelladine],increase in fluorescence,RamR,4.4 fold
